Data on one molecule can be found in patent US9734283B2, “Genomic features associated with epigenetic control regions and transgenerational inheritance of epimutations” (priority 2011, dated 2017).

In series [1] the test system is sperm promoter epigenome (DNA methylation). The following applies: previous comparative MeDIP-Chip study; cited from earlier work.
Series [2] deals with 129 and CD-1 mice. Put plainly: Litter size, sex ratio, body and tissue weights (toxicity). The following applies: transient embryonic exposure. The series is classed as in vivo, mouse. The procedure:
(§1) The experimental design involved exposing gestating female inbred 129 strain and outbred CD-1 strain mice to daily intraperitoneal (IP) injections of vehicle (DMSO) (control) or vinclozolin at two doses, 100 mg/kg/day (V1) or 200 mg/kg/day (V2), between embryonic day 7-13 of gestation. In addition, a comparison was used with flutamide IP injections at a 20/mg/kg/day dose. The F1 generation males and females from different litters were bred to generate the F2 generation animals and F2 generation males and females from different litters were bred to generate the F3 generation animals, see Methods below. No sibling or cousin breedings occurred to avoid any inbreeding artifacts. Selected F1, F2 and F3 generation animals from postnatal 90 (P90) or 300 (P300) days of age were analyzed for testis, sperm and other pathologies as previously described.^11, 20, 21
Timed pregnant inbred 129 mice were given intraperitoneal injections with vinclozolin (100 mg/kg·day, 99% pure; ChemService, West Chester, Pa.), flutamide (20 mg/kg·day, Sigma, St. Louis, Mo.) or DMSO in sesame oil (vehicle) as controls, while timed pregnant outbred CD-1 mice were given intraperitoneal injections (IP) with vinclozolin doses: 100 mg/kg·day (V1) or 200 mg/kg·day (V2) or DMSO in sesame oil as controls.^21 Mice were given injections from embryonic day (E) E7-E13, with plug date equal to day 0. Controls were injected with vehicle (DMSO) dose and were matched with vinclozolin or flutamide treatment animals within the same mouse strain at the time of injection and were analyzed together throughout all three generations. The number of treated gestating females used were: for mouse 129 strain (3 controls and 4 vinclozolin treated); for mouse 129 strain flutamide 20 mg/kg/day dose (3 controls and 3 flutamide treated); and for mouse CD-1 strain (4 control and 3 vinclozolin treated (100 mg/kg/day (V1), 3 vinclozolin 200 mg/kg/day (V2)). F1 postnatal (P)P90 males and females from different litters of control, vinclozolin and flutamide treatment groups were bred to generate the F2 generation. F2 generation mice were bred to generate the F3 generation. Breedings were carefully monitored to eliminate any sibling or cousin breeding to remove potential phenotypes as a result of inbreeding. Male mice were collected and analyzed between P60-P90 (P90) for all generations and treatment groups. The number of P90 males collected for replicates for the mouse 129 strain vinclozolin treatment group (i.e. n value) were: for F1 (8 control, 11 vinclozolin); for F2 (11 control, 22 vinclozolin); and for F3 (11 control, 11 vinclozolin). […]

Series [3] relates to testicular spermatogenic cells. The series can be described thus: Testicular spermatogenic cell apoptosis (TUNEL assay), F1-F3 lineage after F0 gestational exposure. The series is classed as in vivo, mouse. How it is done:
as §1
Timed pregnant inbred 129 mice were given intraperitoneal injections with vinclozolin (100 mg/kg·day, 99% pure; ChemService, West Chester, Pa.), flutamide (20 mg/kg·day, Sigma, St. Louis, Mo.) or DMSO in sesame oil (vehicle) as controls, while timed pregnant outbred CD-1 mice were given intraperitoneal injections (IP) with vinclozolin doses: 100 mg/kg·day (V1) or 200 mg/kg·day (V2) or DMSO in sesame oil as controls.^21 Mice were given injections from embryonic day (E) E7-E13, with plug date equal to day 0. Controls were injected with vehicle (DMSO) dose and were matched with vinclozolin or flutamide treatment animals within the same mouse strain at the time of injection and were analyzed together throughout all three generations. […] Male mice were collected and analyzed between P60-P90 (P90) for all generations and treatment groups. […]

For the molecule `C=CC1(C)OC(=O)N(c2cc(Cl)cc(Cl)c2)C1=O` (racemic) [vinclozolin, (RS)-3-(3,5-dichlorophenyl)-5-methyl-5-vinyl-1,3-oxazolidine-2,4-dione], the “number of promoters in rat sperm with transgenerational alteration in DNA methylation” value in series [1] is 48. In addition, in series [2] (F1-F3), the “body weight, testis weight index, or kidney weight index” value is “no consistent transgenerational differences”. In series [2] (all generations analyzed), the “litter size or male/female sex ratio” value is recorded as “no consistent transgenerational effects”. The “mean number of apoptotic germ cells within the testes” value in series [3] (129 inbred strain, vinclozolin 100 mg/kg/day IP to F0 E7-E13, F1, F2, F3 at P90, F1 and F2 at P300, vs control) was “increased”. The “testicular apoptotic germ cells” value in series [3] (CD-1 outbred strain, V1 100 mg/kg/day IP to F0 E7-E13, F1 and F3 P90, F1, F2, F3 P300) was “significant increases”.
